What follows are compounds tested against CDK12 (Homo sapiens (Human), UniProt Q9NYV4) (assay: Radiometric protein kinase assay (33PanQinase Activity Assay), Assay Condition B (thiol-free conditions)). Details: thiol-free conditions (1 mM TCEP, glutathione removed).
Chain of CDK12 (Q9NYV4 whole entry): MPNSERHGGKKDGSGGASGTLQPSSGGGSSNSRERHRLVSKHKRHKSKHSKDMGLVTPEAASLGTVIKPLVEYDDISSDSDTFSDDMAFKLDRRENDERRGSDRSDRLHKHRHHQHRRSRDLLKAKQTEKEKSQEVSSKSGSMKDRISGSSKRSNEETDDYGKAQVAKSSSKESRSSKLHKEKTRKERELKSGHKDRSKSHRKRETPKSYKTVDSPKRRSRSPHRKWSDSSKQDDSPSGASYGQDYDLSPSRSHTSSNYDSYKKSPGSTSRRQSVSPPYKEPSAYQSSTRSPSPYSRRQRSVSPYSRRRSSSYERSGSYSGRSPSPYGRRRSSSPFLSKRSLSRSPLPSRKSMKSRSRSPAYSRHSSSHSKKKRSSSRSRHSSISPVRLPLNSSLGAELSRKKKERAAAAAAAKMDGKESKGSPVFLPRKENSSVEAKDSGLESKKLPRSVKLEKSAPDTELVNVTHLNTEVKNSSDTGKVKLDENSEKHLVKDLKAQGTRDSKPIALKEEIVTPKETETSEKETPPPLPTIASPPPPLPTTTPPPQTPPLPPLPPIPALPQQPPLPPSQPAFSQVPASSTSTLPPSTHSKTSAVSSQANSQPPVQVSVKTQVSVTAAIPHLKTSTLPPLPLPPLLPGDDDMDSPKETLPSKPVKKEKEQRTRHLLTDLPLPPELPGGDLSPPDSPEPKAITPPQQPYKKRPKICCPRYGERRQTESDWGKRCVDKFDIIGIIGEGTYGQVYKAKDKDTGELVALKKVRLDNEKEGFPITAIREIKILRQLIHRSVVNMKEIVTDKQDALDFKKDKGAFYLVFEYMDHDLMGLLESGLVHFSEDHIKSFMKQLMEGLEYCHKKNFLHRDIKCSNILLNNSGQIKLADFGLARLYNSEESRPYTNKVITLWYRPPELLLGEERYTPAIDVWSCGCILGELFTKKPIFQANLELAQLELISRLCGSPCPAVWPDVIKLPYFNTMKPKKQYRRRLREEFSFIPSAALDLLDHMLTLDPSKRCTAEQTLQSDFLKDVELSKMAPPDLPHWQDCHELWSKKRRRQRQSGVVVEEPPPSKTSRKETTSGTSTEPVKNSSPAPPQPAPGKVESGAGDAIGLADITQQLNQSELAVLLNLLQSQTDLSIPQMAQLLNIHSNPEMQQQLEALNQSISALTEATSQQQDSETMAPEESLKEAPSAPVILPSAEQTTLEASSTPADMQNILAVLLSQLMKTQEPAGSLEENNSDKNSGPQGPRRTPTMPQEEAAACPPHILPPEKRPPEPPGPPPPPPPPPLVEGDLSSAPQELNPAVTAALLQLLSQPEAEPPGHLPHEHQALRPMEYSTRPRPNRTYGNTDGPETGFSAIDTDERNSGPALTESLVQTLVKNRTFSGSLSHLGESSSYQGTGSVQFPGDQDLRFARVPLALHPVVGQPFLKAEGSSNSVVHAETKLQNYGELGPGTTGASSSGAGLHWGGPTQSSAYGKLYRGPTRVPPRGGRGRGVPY
Chain of CDK12 (O75909 whole entry partner): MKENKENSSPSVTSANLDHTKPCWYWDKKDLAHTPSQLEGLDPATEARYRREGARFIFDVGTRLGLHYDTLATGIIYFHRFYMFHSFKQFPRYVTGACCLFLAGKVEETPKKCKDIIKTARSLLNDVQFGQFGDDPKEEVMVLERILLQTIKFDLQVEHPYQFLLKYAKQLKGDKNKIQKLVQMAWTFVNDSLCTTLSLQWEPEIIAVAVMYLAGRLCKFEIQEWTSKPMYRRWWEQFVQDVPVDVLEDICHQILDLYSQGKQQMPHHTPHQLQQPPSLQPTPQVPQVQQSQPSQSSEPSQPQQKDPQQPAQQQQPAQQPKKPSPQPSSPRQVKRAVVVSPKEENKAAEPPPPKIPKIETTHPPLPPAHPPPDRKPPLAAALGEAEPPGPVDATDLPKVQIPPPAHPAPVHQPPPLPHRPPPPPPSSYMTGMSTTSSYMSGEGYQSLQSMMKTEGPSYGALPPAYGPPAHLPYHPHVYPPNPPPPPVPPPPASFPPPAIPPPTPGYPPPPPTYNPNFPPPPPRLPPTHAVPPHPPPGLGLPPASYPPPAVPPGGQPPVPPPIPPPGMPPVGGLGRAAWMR
Type: biochemical
Method: Example 2—Assay Condition B (Thiol-Free Conditions)
The IC50 profile of compounds was determined using one protein kinase in a customized, thiol free assay. […] Prior to testing, the 1×10^−03 M stock solutions in column 2 of the master plates were subjected to a serial, semi-logarithmic dilution using 100% DMSO as a solvent. […] Column 1 and 7 were filled with 100% DMSO as controls. Subsequently, 2×10 microliter from each well of the serial diluted copy plates were aliquoted with a 96 channel pipettor into two identical sets of “compound dilution plates”. All plates were barcoded for automated identification and tracking purposes. […] All compounds were stored as powder until being solubilized in DMSO. Solubilized compounds were stored as 1×10^−02 M/100% DMSO stock solutions. Prior to the assay process, 90 microliters of H2O were added to each well of a set of compound dilution plates. To minimize potential precipitation, the H2O was added to each plate only a few minutes before the transfer of the compound solutions into the assay plates. Each plate was shaken thoroughly, resulting in compound dilution plates with a final of 10% DMSO. For each assay, 5 microliters of solution from each well of the compound dilution plates/10% DMSO were transferred into the assay plate. The final volume of the assay was 50 μl. All compounds were tested at 10 final assay concentrations in the range from 1×10^−05 M to 3×10^−10 M, in singlicate. The final DMSO concentration in the reaction cocktails was 1% in all cases. A radiometric protein kinase assay (33PanQinase® Activity Assay) was used for measuring the kinase activity of the protein kinase. All kinase assays were performed in 96-well FlashPlates™ from PerkinElmer (Boston, Mass., USA) in a 50 microliter reaction volume. The reaction cocktail was pipetted in four steps in the following order: 20 microliter of assay buffer (standard buffer)·5 microliter of ATP solution (in H2O)·5 microliter of test compound (in 10% DMSO)·20 microliter enzyme/substrate mix. […] For all experiments labeled as “Thiol-free”, all glutathione was exchanged from protein preparations so as to be removed from the assay and final buffer conditions contained no thiol-containing reagents. This was done so there would be no interference with the key cysteines in the proteins of interest.
For data analysis, the median value of the counts in column 1 (n=8) of each assay plate was defined as “low control”. This value reflects unspecific binding of radioactivity to the plate in the absence of a protein kinase but in the presence of the substrate. The median value of the counts in column 7 of each assay plate (n=8) was taken as the “high control”, i.e. full activity in the absence of any inhibitor. The difference between high and low control was taken as 100% activity. As part of the data evaluation the low control value from a particular plate was subtracted from the high control value as well as from all 80 “compound values” of the corresponding plate. The residual activity (in %) for each well of a particular plate was calculated by using the following formula: Res. Activity (%)=100×[(cpm of compound−low control)/(high control−low control)]
The residual activities for each concentration and the compound IC50 values were calculated using Quattro Workflow V3.1.1 (Quattro Research GmbH, Munich, Germany; www.quattro-research.com). […] The fitting method used was a least-squares fit. As a parameter for assay quality, the Z′-factor (Zhang et al., J. Biomol. Screen. 2: 67-73, 1999) for the low and high controls of each assay plate (n=8) was used. ProQinase's criterion for repetition of an assay plate is a Z′-factor below 0.4 (Iversen et al., J. Biomol. Screen. 3: 247-252, 2006).
For `C=CC(=O)N1CCc2cc(C(=O)N3CC[C@@H](Nc4ncc(Cl)cn4)C3)ccc21` [Example 30, (R)-1-(5-(3-((5-chloropyrimidin-2-yl)amino)pyrrolidine-1-carbonyl)indolin-1-yl)prop-2-en-1-one], the IC50 was less than 0.1 µM.
`C=CC(=O)Nc1ccc(C(=O)N2CC[C@@H](Nc3ncc(Cl)cn3)C2)cc1OC` [Example 31, (R)—N-(4-(3-((5-chloropyrimidin-2-yl)amino)pyrrolidine-1-carbonyl)-2-methoxyphenyl)acrylamide] gave an IC50 of less than 0.1 µM.
`C=CC(=O)Nc1ccc(C(=O)N2CC[C@@H](Nc3ncc(Cl)cn3)C2)c(C)c1` [Example 32, (R)—N-(4-(3-((5-chloropyrimidin-2-yl)amino)pyrrolidine-1-carbonyl)-3-methylphenyl)acrylamide] was tested, and the IC50 was 0.1 to 1 µM.
`C=CC(=O)Nc1c(C)cc(C(=O)N2CC[C@@H](Nc3ncc(Cl)cn3)C2)cc1C` [Example 33, (R)—N-(4-(3-((5-chloropyrimidin-2-yl)amino)pyrrolidine-1-carbonyl)-2,6-dimethylphenyl)acrylamide] showed an IC50 of 1 to 10 µM.
`C=CC(=O)N1CCOc2cc(C(=O)N3CC[C@@H](Nc4ncc(Cl)cn4)C3)ccc21` [Example 34, (R)-1-(7-(3-((5-chloropyrimidin-2-yl)amino)pyrrolidine-1-carbonyl)-2H-benzo[b][1,4]oxazin-4(3H)-yl)prop-2-en-1-one] showed an IC50 of 0.1 to 1 µM.
`C=CC(=O)Nc1ccc(C(=O)N2CCC[C@@H](Nc3nccc(-c4ccnn4C)n3)C2)cc1` [Example 35, (R)—N-(4-(3-((4-(1-methyl-1H-pyrazol-5-yl)pyrimidin-2-yl)amino)piperidine-1-carbonyl)phenyl)acrylamide] showed an IC50 of 30 to 100 µM.
In the case of `C=CC(=O)Nc1ccc(C(=O)N2CCC[C@@H](Nc3nccc(N4CCOCC4)n3)C2)cc1` [Example 36, (R)—N-(4-(3-((4-morpholinopyrimidin-2-yl)amino)piperidine-1-carbonyl)phenyl)acrylamide], the IC50 is reported as 30 to 100 µM.
Work on `C=CC(=O)Nc1ccc(C(=O)N2CCC[C@@H](Nc3nccc(OC)n3)C2)cc1` [Example 37, (R)—N-(4-(3-((4-methoxypyrimidin-2-yl)amino)piperidine-1-carbonyl)phenyl)acrylamide] yielded an IC50 of 1 to 10 µM.
`C=CC(=O)Nc1ccc(C(=O)N2CCC[C@@H](Nc3cnc(Cl)cn3)C2)cc1` [Example 38, (R)—N-(4-(3-((5-chloropyrazin-2-yl)amino)piperidine-1-carbonyl)phenyl)acrylamide] showed an IC50 of 10 to 30 µM.
`C=CC(=O)Nc1ccc(C(=O)N2CCC[C@@H](Nc3nccc(-c4cnn(C)c4)n3)C2)cc1` [Example 39, (R)—N-(4-(3-((4-(1-methyl-1H-pyrazol-4-yl)pyrimidin-2-yl)amino)piperidine-1-carbonyl)phenyl)acrylamide] showed an IC50 of 30 to 100 µM.
`C=CC(=O)Nc1ccc(C(=O)N2CCC[C@@H](Nc3nccc(OC4CCCC4)n3)C2)cc1` [Example 40, (R)—N-(4-(3-((4-(cyclopentyloxy)pyrimidin-2-yl)amino)piperidine-1-carbonyl)phenyl)acrylamide] showed an IC50 of 10 to 30 µM.
`CCC(=O)Nc1ccc(C(=O)N2CCC[C@@H](Nc3nccc(-c4cn[nH]c4)n3)C2)cc1` [Example 41, (R)—N-(4-(3-((4-(1H-pyrazol-4-yl)pyrimidin-2-yl)amino)piperidine-1-carbonyl)phenyl)propionamide] was tested, and the IC50 was 30 to 100 µM.
`CCC(=O)Nc1ccc(C(=O)N2CCC[C@@H](Nc3nccc(N4CCOCC4)n3)C2)cc1` [Example 42, (R)—N-(4-(3-((4-morpholinopyrimidin-2-yl)amino)piperidine-1-carbonyl)phenyl)propionamide] gave an IC50 of 30 to 100 µM.
Work on `CCC(=O)Nc1ccc(C(=O)N2CC[C@@H](Nc3nccc(-c4cn[nH]c4)n3)C2)cc1` [Example 43] yielded an IC50 of 1 to 10 µM.
Compound `C=CC(=O)Nc1ccc(C(=O)N2CC[C@@H](Nc3nccc(-c4cn[nH]c4)n3)C2)cc1` [Example 44, (R)—N-(4-(3-((4-(1H-pyrazol-4-yl)pyrimidin-2-yl)amino)pyrrolidine-1-carbonyl)phenyl)acrylamide] has an IC50 of 0.1 to 1 µM.
Work on `C=CC(=O)N1CCOc2cc(C(=O)N3CC[C@@H](Nc4ncc(Cl)cn4)C3)ccc21` [Example 51, (R)-1-(7-(3-((5-chloropyrimidin-2-yl)amino)pyrrolidine-1-carbonyl)-2H-benzo[b][1,4]oxazin-4(3H)-yl)prop-2-en-1-one] yielded an IC50 of 0.1 to 1 µM.
`C=CC(=O)Nc1ccc(C(=O)N2CC[C@@H](Nc3ncc(Cl)c(OC4CC4)n3)C2)cc1` [Example 56, (R)—N-(4-(3-((5-chloro-4-cyclopropoxypyrimidin-2-yl)amino)pyrrolidine-1-carbonyl)phenyl)acrylamide] showed an IC50 of less than 0.1 µM.
With `C=CC(=O)Nc1ccc(C(=O)N2CC[C@@H](Nc3ncc(C)cn3)C2)cc1` [Example 57, (R)—N-(4-(3-((5-methylpyrimidin-2-yl)amino)pyrrolidine-1-carbonyl)phenyl)acrylamide] the IC50 was 0.1 to 1 µM.
`C=CC(=O)Nc1ccc(C(=O)N2CC[C@@H](Nc3cnc(C(F)(F)F)cn3)C2)cc1` [Example 60, (R)—N-(4-(3-((5-(trifluoromethyl)pyrazin-2-yl)amino)pyrrolidine-1-carbonyl)phenyl)acrylamide] was tested, and the IC50 was 0.1 to 1 µM.
In the case of `C=CC(=O)Nc1ccc(C(=O)N2CC[C@@H](Nc3cnc(C)cn3)C2)cc1` [Example 61, (R)—N-(4-(3-((5-methylpyrazin-2-yl)amino)pyrrolidine-1-carbonyl)phenyl)acrylamide], the IC50 is reported as 1 to 10 µM.
For `C=CC(=O)N1CCOc2cc(C(=O)N3CC[C@@H](Nc4ncc(Cl)c(OC)n4)C3)ccc21` [Example 63, (R)-1-(7-(3-((5-chloro-4-methoxypyrimidin-2-yl)amino)pyrrolidine-1-carbonyl)-2H-benzo[b][1,4]oxazin-4(3H)-yl)prop-2-en-1-one], the IC50 was 0.1 to 1 µM.
With `C=CC(=O)Nc1ccc(C(=O)N2CC[C@@H](Nc3ccc(Cl)cn3)C2)cc1` [Example 64, (R)—N-(4-(3-((5-chloropyridin-2-yl)amino)pyrrolidine-1-carbonyl)phenyl)acrylamide] the IC50 was 0.1 to 1 µM.
In the case of `C=CC(=O)N1CCCc2cc(C(=O)N3CC[C@@H](Nc4ncc(Cl)c(OC)n4)C3)ccc21` [Example 65, (R)-1-(6-(3-((5-chloro-4-methoxypyrimidin-2-yl)amino)pyrrolidine-1-carbonyl)-3,4-dihydroquinolin-1(2H)-yl)prop-2-en-1-one], the IC50 is reported as less than 0.1 µM.
`C=CC(=O)Nc1ccc(C(=O)N2CC[C@@H](Nc3ncc(Cl)c(OC)n3)C2)cc1N1CCOCC1` [Example 68, (R)—N-(4-(3-((5-chloro-4-methoxypyrimidin-2-yl)amino)pyrrolidine-1-carbonyl)-2-morpholinophenyl)acrylamide] gave an IC50 of less than 0.1 µM.
`C=CC(=O)Nc1ccc(C(=O)N2CC[C@@H](Nc3ncc(Cl)cn3)C2)cc1-c1cnn(C)c1` [Example 69, (R)—N-(4-(3-((5-chloropyrimidin-2-yl)amino)pyrrolidine-1-carbonyl)-2-(1-methyl-1H-pyrazol-4-yl)phenyl)acrylamide] gave an IC50 of 0.1 to 1 µM.
`C=CC(=O)Nc1ccc(C(=O)N2CC[C@@H](Nc3ncc(F)c(OC4CC4)n3)C2)cc1` [Example 71, (R)—N-(4-(3-((4-cyclopropoxy-5-fluoropyrimidin-2-yl)amino)pyrrolidine-1-carbonyl)phenyl)acrylamide] was tested, and the IC50 was 0.1 to 1 µM.
Compound `C=CC(=O)Nc1ncc(C(=O)N2CC[C@@H](Nc3ncc(Cl)c(OC)n3)C2)s1` [Example 73, (R)—N-(5-(3-((5-chloro-4-methoxypyrimidin-2-yl)amino)pyrrolidine-1-carbonyl)thiazol-2-yl)acrylamide] has an IC50 of 0.1 to 1 µM.
With `C=CC(=O)Nc1ccc(C(=O)N2CC[C@@H](Nc3ncc(Cl)c(OC)n3)C2)cc1N1CCCCC1` [Example 74, (R)—N-(4-(3-((5-chloro-4-methoxypyrimidin-2-yl)amino)pyrrolidine-1-carbonyl)-2-(piperidin-1-yl)phenyl)acrylamide] the IC50 was less than 0.1 µM.
Compound `C=CC(=O)Nc1ccc(C(=O)N2CC[C@@H](Nc3ccc(C)cn3)C2)cc1` [Example 75, (R)—N-(4-(3-((5-methylpyridin-2-yl)amino)pyrrolidine-1-carbonyl)phenyl)acrylamide] has an IC50 of 1 to 10 µM.
